Tests used:
cyclophilin B = cyclophilin B (Homo sapiens, UniProt P23284); experiment: Cyclophilin inhibition binding, competitive ELISA (Cyclophilin B); conditions: human recombinant cyclophilin, read-out: EC50 against cyclophilin B
Protocol: The cyclophilin inhibition binding of compounds disclosed herein was determined using a competitive ELISA adapted from the methods described by Quesniaux et al. (Eur. J Immunol., 1987, 17:1359-1365). Activated ester of succinyl spacers bound to D-Lys^8-cylosporine A (D-Lys^8-Cs) are coupled to bovine serum albumin (BSA) through D-lysyl residue in position 8. BSA is dissolved in 0.1 M borate buffer, pH 9.0 (4 mg in 1.4 ml). A hundredfold molar excess of D-Lys^8-Cs dissolved in dimethyl formamide (0.6 ml) is added drop wise to the BSA under vigorous stirring. […] After acetone precipitation of an aliquot of the conjugated protein, no covalently bound D-Lys^8-Cs remains in the acetone solution and the extent of cyclosporine covalent binding is calculated.
Microtiter Plates are coated with D-Lys^8-Cs-BSA conjugate (2 μg/ml in PBS for 24 hours at 4° C.). […] Cyclophilin is detected with anti-cyclophilin rabbit antiserum diluted in 1% BSA containing PBS and incubates overnight at 4° C. […] Bound rabbit antibodies are then detected by goat anti-rabbit IgG conjugated to alkaline phosphatase diluted in 1% BSA-PBS and allowed to incubate for 2 hours at 37° C. […] After incubation with 4-nitrophenyl phosphate (1 g/l in diethanolamine buffer, pH 9.8) for 1 to 2 hours at 37° C., the enzymatic reaction is measured spectrophotometrically at 405 nm using a spectrophotometer. […]

[1] = tested on: Sprague-Dawley rats with induced Acute Kidney Injury; experiment: Renal Ischemia-Reperfusion Induced Acute Kidney Injury in rats; type: in vivo, rat; conditions: for Creatinine: serum 24 hours after ligation/release
Protocol: With the exception of Group (i), i.e. the ‘sham group’, renal Ischemia-Reperfusion Induced Acute Kidney Injury (AKI) was induced in the rats by ligation of bilateral renal arteries for 30 min and then ligation was released. Animals in the control and treatment groups were administered intraperitoneal injections three times (1 h before ligation, 4 h and 8 h after ligation). Blood was taken from the animals 24 hours after the ligation/release procedure and analyzed for serum Creatinine and Blood Urea Nitrogen (BUN) concentrations, as a measure of kidney injury.

Cyclophilin A = Cyclophilin A (Homo sapiens, UniProt P62937); experiment: Cyclophilin inhibition binding, competitive ELISA (Cyclophilin A); conditions: human recombinant cyclophilin, read-out: CypA EC50
Chain of Cyclophilin A (P62937 whole entry): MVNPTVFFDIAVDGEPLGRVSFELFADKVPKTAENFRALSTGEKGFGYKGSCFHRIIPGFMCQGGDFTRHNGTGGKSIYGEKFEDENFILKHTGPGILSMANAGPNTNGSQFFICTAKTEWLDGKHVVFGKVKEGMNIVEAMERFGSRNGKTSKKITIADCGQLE
Protocol: (§1) The cyclophilin inhibition binding of compounds disclosed herein was determined using a competitive ELISA adapted from the methods described by Quesniaux et al. (Eur. J Immunol., 1987, 17:1359-1365). Activated ester of succinyl spacers bound to D-Lys^8-cylosporine A (D-Lys^8-Cs) are coupled to bovine serum albumin (BSA) through D-lysyl residue in position 8. BSA is dissolved in 0.1 M borate buffer, pH 9.0 (4 mg in 1.4 ml). A hundredfold molar excess of D-Lys^8-Cs dissolved in dimethyl formamide (0.6 ml) is added drop wise to the BSA under vigorous stirring. The coupling reaction is performed for 2 to 3 hours at room temperature under mild stirring and the conjugate is extensively dialyzed against phosphate-buffered saline (PBS, pH 7.4).
(§2) Microtiter Plates are coated with D-Lys^8-Cs-BSA conjugate (2 μg/ml in PBS for 24 hours at 4° C.). Plates are washed with Tween®/PBS and with PBS alone. To block nonspecific binding, 2% BSA/PBS (pH 7.4) is added to the wells and allowed to incubate for 2 hours at 37° C. […] Cyclophilin is detected with anti-cyclophilin rabbit antiserum diluted in 1% BSA containing PBS and incubates overnight at 4° C. […] Bound rabbit antibodies are then detected by goat anti-rabbit IgG conjugated to alkaline phosphatase diluted in 1% BSA-PBS and allowed to incubate for 2 hours at 37° C. […]

Cyclophilin D = Cyclophilin D (Homo sapiens, UniProt P30405); experiment: Cyclophilin inhibition binding, competitive ELISA (Cyclophilin D); conditions: human recombinant cyclophilin, read-out: CypD EC50
Chain of Cyclophilin D (P30405 30-207): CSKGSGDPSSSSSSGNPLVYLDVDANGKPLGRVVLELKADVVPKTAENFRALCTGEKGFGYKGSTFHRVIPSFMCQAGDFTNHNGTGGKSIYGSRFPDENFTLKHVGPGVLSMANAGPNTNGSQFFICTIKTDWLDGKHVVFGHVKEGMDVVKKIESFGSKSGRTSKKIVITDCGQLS
Protocol: as §1, §2

Chain of cyclophilin B (P23284 34-216): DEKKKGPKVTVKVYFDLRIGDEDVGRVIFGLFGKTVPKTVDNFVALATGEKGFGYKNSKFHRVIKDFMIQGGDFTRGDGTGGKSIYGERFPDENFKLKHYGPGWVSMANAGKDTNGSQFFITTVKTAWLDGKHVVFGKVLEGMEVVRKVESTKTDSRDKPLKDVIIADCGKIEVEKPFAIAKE

Question: Which EC50 (cyclophilin B) does the source give for C/C=C/C[C@@H](C)[C@@H](O)[C@H]1C(=O)N[C@@H](CC)C(=O)N(C)[C@H](OCCN(C)C)C(=O)N(C)[C@@H](CC(C)C)C(=O)N[C@@H](C(C)C)C(=O)N(C)[C@@H](CC(C)C)C(=O)N[C@@H](C)C(=O)N[C@H](C)C(=O)N(C)[C@@H](CC(C)C)C(=O)N(C)[C@@H](CC(C)C)C(=O)N(C)[C@@H](C(C)C)C(=O)N1C [Compound 1] here?
Answer: < 100 nM

Question: What does the source list for C/C=C/C[C@@H](C)[C@@H](O)[C@H]1C(=O)N[C@@H](CC)C(=O)N(C)CC(=O)N(C)[C@@H](CC(C)C)C(=O)N[C@@H](C(C)C)C(=O)N(C)[C@@H](CC(C)C)C(=O)N[C@@H](C)C(=O)N[C@H](C)C(=O)N(C)[C@@H](CC(C)C)C(=O)N(C)[C@@H](CC(C)C)C(=O)N(C)[C@@H](C(C)C)C(=O)N1C [CsA, Cyclosporin A]?
Answer: Creatinine ([1]; 3 mg/kg i.p. three times): 115 µmol/L; Blood Urea Nitrogen ([1]; 10 mg/kg i.p. three times, 24 hours after ligation/release): 42 mmol/L; Creatinine ([1]; 10 mg/kg i.p. three times): 290 µmol/L

Question: What does the source list for C/C=C/C[C@@H](C)[C@@H](O)[C@H]1C(=O)N[C@@H](CC)C(=O)N(C)[C@H](OCCNC)C(=O)N(C)[C@@H](CC(C)C)C(=O)N[C@@H](C(C)C)C(=O)N(C)[C@@H](CC(C)C)C(=O)N[C@@H](C)C(=O)N[C@H](C)C(=O)N(C)[C@@H](CC(C)C)C(=O)N(C)[C@@H](CC(C)C)C(=O)N(C)[C@@H](C(C)C)C(=O)N1C [Entry 1]?
Answer: EC50 (Cyclophilin A): 61 nM; EC50 (Cyclophilin D): 2170 nM
